From patent US9233127B2, “Compositions and methods for CXCR4 signaling and umbilical cord blood stem cell engraftment” (University of Virginia Patent Foundation, priority 2012, dated 2016)
Entries after “also recorded” stand apart in the source; their conditions may differ. Ends that are not written are not given here.

Key:
DNA methyltransferase = test: miR-184 expression by RT-PCR in adult CD4 T-cells treated with 5-aza deoxycytidine; type: cell-based, human; conditions: 10 uM for 24 h
Experimental: FIG. 29A-B—A.) Schematic of the genomic region surrounding hsa-miR-184. Dots denote CpG sites and a putative CpG island (defined by observed/expected CpG incidence>[…], GC>50%, length>100 bp) located closely upstream. B) Adult CD4 T-cells were cultured with and without the DNA methyltransferase blocker 5-aza deoxycytidine (5-aza) for 24 h, a portion stimulation for 6 h, then assayed for miR-184 expression by RT-PCR.
However, expression of many miRNA species is known to be mediated by epigenetic events such as DNA methylation. […] Indeed we observed a small predicted (obs/exp>0.6, GC>50%) CpG island upstream of the miR-184 genomic site as well as several additional downstream CpG sites (FIG. 29 A). Inhibition of […] gene silencing is accomplished by treating with 5-aza-deoxycytidine, which is incorporated into replicating DNA and blocks DNA methyltransferase enzymes.

CXCR4 = test: Western blot of CXCR4 in lipid raft membrane fractions, cationic peptides (Nalm-6); type: cell-based, human
Experimental: (§1) FIG. 18A-B—Priming effect of cationic peptides is dependent on enhanced incorporation of CXCR4 into lipid rafts. (A) Western blot analysis of the localization of CXCR4 in various fractions of cell membranes. Membranes enriched in lipid rafts (fractions 3-5) and depleted of lipid rafts (fractions 9-11). Human pre-B cell line, Nalm-6, was stimulated with […] β2-defensin (hBD-2) (250 ng/ml) or was not stimulated (control). CXCR4 was detected in these membrane fractions by Western blot along with Lyn, a marker of lipid rafts. Experiments were performed three times with similar results. (B) LL-37-induced enhancement of THP-1 cell migration to SDF-1 gradient was inhibited by 1 h pretreatment with MβCD (1.0 or 2.5 mM). * P<0.05 as compared with migration of control cells in the absence of LL-37 (2.5 μg/ml). Lipid raft formation was analyzed. Shown are representative of three independent experiment carried out in triplicate per group. The data shown represent the combine results from four independent experiments carried out in triplicate per group (n=12).
(§2) Since enhanced responsiveness of HSPCs to SDF-1 gradient in the presence of C3a (priming effect) is mediated by incorporation of CXCR4 into membrane lipid rafts, we tested if similar phenomenon is responsible for LL-37 or β2D-dependent priming. […]

[1] = test system: murine BMNCs and CFU-GM progenitor cells; test: Migration of murine BMNCs and CFU-GM progenitors to SDF-1 gradient after cationic peptide priming; type: cell-based; conditions: for migration of CFU-GM progenitor cells in response to SDF-1 gradient / migration of murine BMNCs in response to SDF-1 gradient: SDF-1 50 ng/ml; for chemotactic activity alone: without SDF-1
Experimental: FIG. 8A-B—A) BM mononuclear cell and B) CFU-GM migration in response to an SDF-1 gradient after priming with LL-37 or hBD-2. Values are fold increases of migrated cells compared to media alone.
FIG. 17A-B—Cationic peptides released from granulocytes enhance responsiveness of HSPCs to SDF-1 gradient. […] Values are the fold increases of migrated cells compared to media alone. M, media alone; SDF-1 (L), 50 ng/ml; SDF-1 (H), 300 ng/ml; C3a, 1 μg/ml. * P<0.05 as compared with SDF-1 (50 ng/ml) alone. The data shown represent the combine results from four independent experiments carried out in triplicate per group (n=12).
We also evaluated the effect of complement fragment 5a (C5a). […] After leaving the BM, granulocytes undergo degranulation in response to plasma C5a and secrete cationic peptides, such as cathelicidin (LL-37) and β-defensin-2 (hBD-2). […] It was hypothesized that this response may be affected by the distribution of membrane lipids by cationic peptides. […] Direct confocal analysis of CXCR4 and lipid raft colocalization in the presence or absence of cationic peptides confirmed these findings.

[2] = test system: syngeneic BM mononuclear cells; test: Murine BM transplant with BM mononuclear cells exposed ex vivo to LL-37; type: in vivo; conditions: BM exposed ex vivo 30 minutes; lethally irradiated recipients
Experimental: Leukophoresis products enriched in activated granulocytes release hBD-2 and LL-37. The question was whether this might explain why mobilized peripheral blood hematopoietic progenitors engrafts substantially faster relative to marrow. We therefore performed studies in a murine BM transplant model where syngeneic BM mononuclear cells were exposed ex vivo to LL-37 for 30 minutes and subsequently transplanted into lethally irradiated recipients. […] On the basis of these findings, this represents a second strategy for reducing the period of neutropenia in recipients of UCB

CD34+ cells = test: Transwell chemotaxis of CD34+ cells to an SDF-1 gradient (priming); type: cell-based, human; conditions: pre-incubated 1 hr with MβCD (2.5 mM); low dose of SDF-1
Experimental: FIG. 11A-B—Effect of SLP and its components on chemotaxis of CD34^+ cells. Panel A: Chemotaxis of BM CD34^+ cells towards medium alone (control), SDF-1 low (10 ng/mL) alone, SLP (combined SLP from three patients), SDF-1 low+SLP, and SDF-1 high (300 ng/mL). Data are pooled from quadruplicate samples from three independent experiments. *p<0.00001. Panel B: Chemotaxis of UCB CD34^+ cells to medium alone (control), SDF-1 low (10 ng/mL) alone and SDF-1 low (10 ng/mL)+uPAR (1 μg/mL) or +ICAM (1 μg/mL) or +VCAM (1 μg/mL) or +FN (2 μg/mL), or +FG (4 μg/mL) or +C3a (1 μg/mL). Data are pooled from quadruplicate samples from three independent experiments. * p<0.00001.
Chemotaxis of CD34^+ cells to medium alone (control), C3a (1 μg/ml), C3adesArg (1 μg/ml), SDF-1 low (10 ng/mL) alone, and SDF-1 low (10 ng/mL)+C3a low (0.1 μg/ml) or SDF-1 low (10 ng/mL)+C3a (1 μg/ml) or SDF-1 low (10 ng/mL)+C3adesArg (1 μg/ml). Data are pooled from quadruplicate samples from three independent experiments.* p<0.00001.
FIG. 13A-B—Chemotaxis of cells to an SDF-1 gradient is lipid raft-dependent. Panel A: Chemotaxis of CD34^+ cells to medium alone (control), SDF-1 (300 ng/mL) and SDF-1 (300 ng/mL) after preincubation for 1 hr with Amphotericin (10 μg/mL) or Nystatin (50 μg/mL). Cells were collected after chemotaxis from the lower chambers and plated in a clonogenic assay. The number of CFU-GM and BFU-E colonies formed by harvested cells is shown as a percentage of control values. Data are pooled from quadruplicate samples from three independent experiments. *p<0.0001. Panel B: Chemotaxis of CD34^+ cells towards medium alone (control), SDF-1 low (10 ng/mL) alone, or SDF-1 low with cells exposed to C3a (1 μg/mL). Cells pretreated before chemotaxis for 1 hr with MβCD (2.5 mM) are shown as gray bars. Data are pooled from quadruplicate samples from three independent experiments. * p<0.00001.
HSPCs from the mPB engraft faster compared to HSPCs aspirated from BM. To test the hypothesis that mPB-derived HSPCs are primed in their responses to SDF-1 by molecules present in SLP, we pooled together SLP from three patients and exposed BM or UCB CD34^+ cells to the SLP during chemotaxis to a low (10 ng/mL) dose of SDF-1.
To address this issue further, the formation of rafts in the cells was perturbed by MβCD, which depletes cholesterol from the cell membrane. The CD34^+ cells were pre-incubated with MβCD for 1 hr. Chemotaxis to a low dose of SDF-1 in the presence of C3a (in the upper chambers) was evaluated.

THP-1 cell = THP-1 cell migration to SDF-1 gradient with LL-37 and MβCD pretreatment; type: cell-based
Experimental: as §1, §2

Molecule	miR-184 expression (DNA methyltransferase)	miR-184 expression increase when cells were stimulated in vitro (DNA methyltransferase; stimulation 6 h)	incorporation of CXCR4 into membrane lipid rafts (CXCR4)	priming effect compared with that described for C3a [1]	responsiveness of hematopoietic progenitors to plasma SDF-1 (priming effect) [1]	migration of CFU-GM progenitor cells in response to SDF-1 gradient [1]	migration of murine BMNCs in response to SDF-1 gradient [1]	chemotactic activity alone [1]	accelerated recovery of platelets and neutrophils compared to unprimed control cells [2] [days]	migration of CFU-GM progenitor cells in response to SDF-1 gradient ([1]; listed as β2D)	migration of murine BMNCs in response to SDF-1 gradient ([1]; listed as β2D)	inhibition of the priming effect of C3a (CD34+ cells) [%]	effect on the priming effects of LL-37 and hBD-2 ([1]; inhibitor of cell membrane raft formation)	LL-37-enhanced migration/responsiveness to SDF-1 gradient (THP-1 cell; 1 h pretreatment with MβCD (1.0 or 2.5 mM), LL-37 2.5 μg/ml)	fMLP mediated migration (THP-1 cell; control experiments, MβCD pretreatment)
Nc1ncn([C@H]2C[C@H](O)[C@@H](CO)O2)c(=O)n1 [5-aza deoxycytidine, 5-aza-deoxycytidine]	significant increase	abrogated													
LL-37: active fragment of cathelicidin; recombinant cationic peptide released from granulocytes (LLGDFFRKSKEKIGKEFKRIVQRIKDFLRNLVPRTES; Antibacterial peptide LL-37; UniProt P49913 134-170, looked up)			increase incorporation of CXCR4	several times higher	highly enhanced	enhance/prime migration; also recorded: strongly enhanced	enhance/prime migration; also recorded: strongly enhanced	do not show chemotactic activity	3 to 5						
hBD-2: β-defensin-2; recombinant cationic peptide released from granulocytes (GIGDPVTCLKSGAICHPVFCPRRYKQIGTCGLPGTKCCKKP; ends and bridges not checked; cysteine pairing not given here; UniProt O15263 24-64, looked up)			increase incorporation of CXCR4	several times higher	highly enhanced	strongly enhanced	strongly enhanced	do not show chemotactic activity		enhance/prime migration	enhance/prime migration				
methyl-β-cyclodextrin [MβCD, reference compound]												~60	inhibit the priming effects	inhibited	did not affect
